Source: US20250361259A1, “AMORPHOUS FORM OF REDUCED ß-NICOTINAMIDE MONONUCLEOTIDE CALCIUM SALT, AND PREPARATION METHOD AND USE THEREFOR” (EffePharm (Shanghai) Co., Ltd., priority 2023, published 2025)
Like-named read-outs stand apart in the source and are kept apart here.

Tests used:
[1] = Stability comparison, solids placed openly in a stability test chamber at 25° C. and 65% RH (purity by HPLC, appearance); format: physicochemical; conditions: open, calcium salt
Description: NMNH is the reduced form of NMN, sensitive to air, easily oxidized, and unstable, making it unsuitable for long-term storage and market promotion. WO2023160405(A1) reported the NMNH disodium salt compound and its crystalline and amorphous forms. […] Such stability fails to meet the shelf-life requirements for commercial products, hindering market promotion. The NMNH calcium salt amorphous solids A/B/C/D were each placed openly in a stability test chamber at 25° C. and 65% RH to evaluate their stability, yielding the data shown in Table 1 and Table 2.

[2] = Hygroscopicity study (water content, KF) at 25° C., 65% RH; format: physicochemical
Description: The NMNH calcium salt amorphous solids A/B/C/D were each placed openly in a stability test chamber at 25° C. and 65% RH to evaluate their stability, yielding the data shown in Table 1 and Table 2. […] The amorphous solid of NMNH disodium salt is more unstable in the air. After 1 day of storage, it absorbs water from powder to oil, and the purity drops from 99.30% to 99.02%.

[3] = 25° C., 65% RH, according to WO2023160405(A1), cited from earlier work
[4] = according to WO2023160405(A1); cited from earlier work

Structure (SMILES)	Purity (HPLC, area %) ([1]; 0 day)	Purity (HPLC, area %) ([1]; 5 days)	Purity (HPLC, area %) ([1]; 60 days)	Water content of NMNH calcium salt amorphous solid (KF) ([2]; 0 day)	Water content of NMNH calcium salt amorphous solid (KF) ([2]; 5 days)	Water content of NMNH calcium salt amorphous solid (KF) ([2]; 60 days)	also measured
NC(=O)C1=CN([C@@H]2O[C@H](COP(=O)(O)O)[C@@H](O)[C@H]2O)C=CC1.[Ca+2] [NMNH calcium salt Amorphous form D, reduced β-nicotinamide mononucleotide calcium salt]	99.50%	99.49%	99.49%	1.9%	1.9%	1.9%	
NC(=O)C1=CN([C@@H]2O[C@H](COP(=O)([O-])[O-])[C@@H](O)[C@H]2O)C=CC1.[Na+].[Na+] [NMNH disodium salt Crystal form A, NMNH disodium salt]							Purity (HPLC, area %) ([3]; 0 day, disodium salt): 99.33%; Purity (HPLC, area %) ([3]; 0 day, listed as NMNH disodium salt crystal form A, disodium salt): 99.33%; Purity (HPLC, area %) ([3]; 0 day, listed as NMNH disodium salt crystalline Form A solid, disodium salt): 99.33%; Purity (HPLC, area %) ([3]; 1 day, disodium salt): 99.27%; Purity (HPLC, area %) ([3]; 5 days): 99.01%
NC(=O)C1=CN([C@@H]2O[C@H](COP(=O)([O-])[O-])[C@@H](O)[C@H]2O)C=CC1.[Na+].[Na+] [NMNH disodium salt Amorphous form, NMNH disodium salt]							Purity (HPLC, area %) ([3]; 0 day, disodium salt): 99.30%; Purity (HPLC, area %) ([3]; 0 day, listed as NMNH disodium salt amorphous powder, disodium salt): 99.30%; Purity (HPLC, area %) ([3]; 0 day, listed as amorphous solid of NMNH disodium salt, disodium salt): 99.30%; Appearance after storage (powder to oil) ([3]; 1 day): oil; Purity (HPLC, area %) ([3]; 1 day, disodium salt): 99.02%; Purity (HPLC, area %) ([3]; 1 day, listed as NMNH disodium salt amorphous powder, disodium salt): 99.02%; Purity (HPLC, area %) ([3]; 1 day, listed as amorphous solid of NMNH disodium salt, disodium salt): 99.02%
NC(=O)C1=CN([C@@H]2O[C@H](COP(=O)(O)O)[C@@H](O)[C@H]2O)C=CC1.[Ca+2] [NMNH calcium salt Amorphous form C, reduced β-nicotinamide mononucleotide calcium salt]	99.14%	99.14%	99.13%	1.5%	1.6%	1.5%	
NC(=O)C1=CN([C@@H]2O[C@H](COP(=O)([O-])[O-])[C@@H](O)[C@H]2O)C=CC1.[Na+].[Na+] [NMNH disodium salt crystal form B, NMNH disodium salt]							Solid form change when stored in the air [4]: absorb water and transform into crystal form A
NC(=O)C1=CN([C@@H]2O[C@H](COP(=O)(O)O)[C@@H](O)[C@H]2O)C=CC1.[Ca+2] [NMNH calcium salt Amorphous form A, reduced β-nicotinamide mononucleotide calcium salt]	99.51%	99.50%	99.50%	0.8%	0.8%	0.9%	
NC(=O)C1=CN([C@@H]2O[C@H](COP(=O)(O)O)[C@@H](O)[C@H]2O)C=CC1.[Ca+2] [NMNH calcium salt Amorphous form B, reduced β-nicotinamide mononucleotide calcium salt]	99.28%	99.28%	99.28%	1.3%	1.3%	1.3%	
